Test results reported in Sander's compilation of Henry's law constants (doi:10.1007/bf00479396).

assay: Henry solubility constant Hcp at 293 K (mol/(m3 Pa)); details: reference: Tremp et al. (1993)

SMILES | Henry solubility constant Hcp at 293 K
Cc1ccccc1O [1-hydroxy-2-methylbenzene] | 7.1
Cc1ccc(O)cc1 [1-hydroxy-4-methylbenzene] | 13
O=[N+]([O-])c1ccc(O)c([N+](=O)[O-])c1 [2,4-dinitrophenol] | 110
O=[N+]([O-])c1ccccc1O [2-nitrophenol] | 0.77
Cc1cc(O)ccc1[N+](=O)[O-] [3-methyl-4-nitrophenol] | 620
CCC(C)c1ccc(O)c([N+](=O)[O-])c1 (configuration not stated) [4-(1-methylpropyl)-2-nitrophenol] | 0.1
COc1ccc(O)c([N+](=O)[O-])c1 [4-methoxy-2-nitrophenol] | 5.3
Cc1ccc(O)c([N+](=O)[O-])c1 [4-methyl-2-nitrophenol] | 0.67
O=[N+]([O-])c1ccc(O)cc1 [4-nitrophenol] | 770
O=[N+]([O-])c1ccc(F)cc1O [5-fluoro-2-nitrophenol] | 0.5
Cc1ccc([N+](=O)[O-])c(O)c1 [5-methyl-2-nitrophenol] | 0.77
Cc1cccc([N+](=O)[O-])c1O [6-methyl-2-nitrophenol] | 0.29
